Source: paper PMC7347206, “Characterization of a long-term mouse primary liver 3D tissue model recapitulating innate-immune responses and drug-induced liver toxicity” (PLoS ONE, 2020)
Read-outs that look alike come from different tables or passages of the source.

Columns and labels:
[1] = read-out: Human Cmax; reported human in vivo Cmax; 48 (one per compound, as in cell); cited from earlier work
[2] = read-out: Mouse Cmax; reported mouse in vivo maximal plasma concentration; 41 (one per compound, as in cell); cited from earlier work
[3] = system: mouse primary hepatocyte 3D liver spheroids; assay: cells; settings: for IC50: Mus musculus, Hepatocyte; for MOS [3D in vitro IC50 / Human Cmax] 48 h / MOS [3D in vitro IC50 / Human Cmax] 8 days: C57BL/6, mouse
Method: To avoid increased evaporation, a humidified lid (Labcyte, USA), filled with PBS, was placed on each plate. […] From day 4 on, 50% of the medium was replaced daily with serum-free maintenance medium (WME with Cell Maintenance Supplement Pack (Thermo Fisher Scientific, USA)).
Compounds were obtained from Sigma-Aldrich if not otherwise stated. […] Toxicity treatment started on day 7 with re-dosing every second day. On the first day of exposure, 50 μl of the cell culture media was removed and 50 μl of fresh cell culture media containing the compound solution was added to the well to achieve the desired concentration. For redosing, 50 μl of cell culture media was replaced with fresh compound-containing cell culture media. […] The dose-response curves were plotted, and IC50 values were calculated using Graph-Pad Prism.
Drug-induced liver injury (DILI) is a major concern in drug development, which often cannot be predicted in vitro due to inherent limitations of 2D hepatocyte cultures, including short-term viability and decreased functionality. […] The spheroids either experienced a single treatment and were analyzed after 48 hours (Fig 3A–3G, 48 h), or they were repeatedly treated every 2 days and analyzed at day 8 (Fig 3A–3G, 8 days). In both cases, ATP content was used as a viability marker.

[4] = system: bile-salt-export pump (BSEP); assay: Drug-induced cholestasis: BSEP gene expression (qRT-PCR) in coculture spheroids; settings: 24 h
[5] = system: liver coculture spheroids; assay: Cytotoxicity by LDH release or ATP content in the cholestasis study; settings: all treatment conditions (1.25, 2.5, 10 μM), 24 h
TNFα = assay: Crosstalk of parenchymal and non-parenchymal cells: TNFα mRNA in coculture spheroids; assay type: cell-based, mouse; settings: addition of 50 μM Dexamethasone to LPS; as compared to IL-6
Method: (§1) Cytochrome P450 (Cyp450), as well as IL-6 and TNFα gene expression was measured by qRT-PCR.
(§2) Drug-induced liver injuries can be caused by several modes of action, including perturbations of biochemical pathways caused by the interaction of parenchymal and non-parenchymal cells. These complex and dynamic cellular interactions can only be represented in vivo or in coculture models, which include the parenchymal and non-parenchymal cells.

IL-6 = assay: Crosstalk of parenchymal and non-parenchymal cells: IL-6 mRNA in coculture spheroids; assay type: cell-based, mouse
Method: as §1, §2

Cyp3a = Cyp3a inhibition, P450-Glo activity assay in non-induced spheroids; settings: 10 μM Ketoconazole
Cyp3a11 [6] = assay: Cyp450 induction on mRNA level (qRT-PCR) in liver spheroids; assay type: in vitro ADME, mouse; settings: PCN 50 μM, Pb 100 μM
Method: (§3) To analyze the metabolic capacity, spheroids were incubated with different Cyp inducers for 72 hours, starting 7 days or 14 days post seeding and analyzed by qRT-PCR. […] PCN and βNF were dissolved in DMSO as a 1000x stock solution, Pb was dissolved directly in the cell culture media.
(§4) For the biotransformation of endogenous compounds and xenobiotics including drugs, liver cytochromes P450 (Cyp450) play a critical role as they convert substances into more polar products to facilitate the elimination from the body. The major drug-metabolizing Cyp450 in mouse include Cyp1a1, Cyp1a2, Cyp2b10, and Cyp3a11 [34]. To assess their metabolic capacity, spheroids were incubated with well-known Cyp450 inducers for […] and analyzed for Cyp450 induction on RNA level on day 10 and day 17 (Figs 2C and S4). […] Additionally, spheroids were incubated with Phenobarbital (Pb), a known Cyp2b10 and Cyp3a11 inducer.

Cyp2b10 = assay: as above; assay type: in vitro ADME, mouse; settings: 100 μM Pb
Method: as §3, §4

Cyp3a11 [7] = system: Cyp3a11; parameters: method as in PMID 22466549; settings: mouse in vivo; cited from earlier work
Cyp1a1 = assay: Cyp450 induction on mRNA level (qRT-PCR) in liver spheroids; assay type: in vitro ADME, mouse; settings: 15 μM βNF
Method: as §3, §4

Cyp1a2 = assay: as above; assay type: in vitro ADME, mouse; settings: 15 μM βNF
Method: as §3, §4

[8] = system: IL-6 release of Kupffer cells and liver sinusoidal endothelial cells; assay: LPS-induced IL-6 release (ELISA) from liver spheroids; assay type: cell-based, mouse; settings: LPS for 72 hours, 14 days after production
Method: (§5) The activation potential of Kupffer cells and liver sinusoidal endothelial cells was measured by assessing the lipopolysaccharide (LPS)-induced interleukin 6 (IL-6) release. […] was added, and the supernatant was collected after […]. IL-6 concentrations were measured by ELISA (BioLegend, USA). For stellate-cell activation, spheroids were treated with different concentrations of transforming growth factor beta TGFβ (Bio-Techne AG, Switzerland) for 72 hours. Induction of smooth-muscle-α-actin (Acta2) gene expression was measured via quantitative real-time polymerase chain reaction (qRT-PCR), described in the section “gene expression analysis”. For the induction of the major histocompatibility complex class II (MHCII) on LSECs, spheroids were treated with 100 ng ml^-1 tumor-necrosis factor alpha (TNFα; Sigma-Aldrich, Switzerland) for 48 h. H2-Ab1 gene expression was measured via qRT-PCR.
(§6) NPCs are activated upon detection of endotoxins, such as lipopolysaccharides (LPS), which leads to the secretion of certain cytokines by NPCs. To assess the functionality and activation potential of NPCs, monoculture and coculture spheroids were treated with LPS for 72 hours and analyzed for interleukin 6 (IL-6) release (Fig 4C). […] Stellate cells are quiescent in a normal liver but can be activated upon liver damage and are responsible for scar-tissue formation. […]

Cyp3a11 [9] = assay: Crosstalk of parenchymal and non-parenchymal cells: Cyp3a11 mRNA in coculture spheroids ± LPS; settings: LPS alone, 10 μg/ml, 48 h
Method: as §1, §2

[10] = system: Acta2 (alpha smooth muscle actin); assay: Stellate-cell activation: Acta2 gene expression (qRT-PCR) in coculture spheroids; assay type: cell-based, mouse; settings: 72 h
Method: as §5
NPCs are activated upon detection of endotoxins, such as lipopolysaccharides (LPS), which leads to the secretion of certain cytokines by NPCs. To assess the functionality and activation potential of NPCs, monoculture and coculture spheroids were treated with LPS for 72 hours and analyzed for interleukin 6 (IL-6) release (Fig 4C). […] Stellate cells are quiescent in a normal liver but can be activated upon liver damage and are responsible for scar-tissue formation. Stimulation with transforming growth factor beta (TGFβ), triggered a dose-dependent induction of Acta2 (alpha smooth muscle actin, αSMA), which is an activation marker for stellate cells (Fig 4D). Low concentrations of TGFβ increased Acta2 induction by 3.5 fold, whereas higher concentrations induced gene expression by 4.7-fold and 8-fold, respectively. The functional characterization of liver sinusoidal endothelial cells was performed by induction of the major histocompatibility complex II (MHC-II), which is constitutively expressed in LSECs but can be further increased by exposure to pro-inflammatory cytokines, such as tumor necrosis factor alpha (TNFα).

H2-Ab1 (MHC-II) = assay: MHC-II induction on LSECs: H2-Ab1 gene expression (qRT-PCR) in coculture spheroids; assay type: cell-based, mouse; settings: 100 ng ml^-1 TNFα, 48 h
Method: as §5, §6

[11] = read-out: 3D in vitro IC50 8 days
[12] = read-out: 3D in vitro IC50 48 h

Compound: CC(=O)Nc1ccc(O)cc1 [Acetaminophen]
- Cmax [1]: 136 µM
- Cmax [2]: 2220 µM
- IC50 [3, 11]: 2750 µM

Compound: O=C1CC2(CCCC2)CC(=O)N1CCCCN1CCN(c2ncccn2)CC1 [Buspirone]
- Cmax [1]: 0.009 µM
- MOS [3D in vitro IC50 / Human Cmax] 48 h [3]: 49189
- MOS [3D in vitro IC50 / Human Cmax] 8 days [3]: 20489
- IC50 [3, 12]: 443 µM
- IC50 [3, 11]: 184 µM
- hepatotoxicity class by IC50/Cmax (MOS) ([3]; mouse): non-DILI compounds

Compound: CN(C)CCCN1c2ccccc2Sc2ccc(Cl)cc21 [CPZ, Chlorpromazine]
- inhibition of BSEP expression ([4]; high concentrations of CPZ): 96%
- inhibition of BSEP expression ([4]; low concentrations of CPZ): up to 87%
- cytotoxicity by LDH or ATP [5]: no cytotoxicity

Compound: O=P1(N(CCCl)CCCl)NCCCO1 (stereo not shown) [Cyclophosphamide]
- Cmax [1]: 96 µM
- Cmax [2]: 77 µM
- IC50 [3, 12]: 197 µM
- IC50 [3, 11]: 13.3 µM
- hepatotoxicity class by IC50/Cmax (MOS) ([3]; after 48 hours (short-term exposure), cut-off 100): hepatotoxic agents

Compound: C[C@@H]1C[C@H]2[C@@H]3CCC4=CC(=O)C=C[C@]4(C)[C@@]3(F)[C@@H](O)C[C@]2(C)[C@@]1(O)C(=O)CO [Dexamethasone]
- effect on LPS-induced TNFα gene expression (TNFα): only moderate reduction
- reduction of LPS-induced IL-6 mRNA induction (IL-6; co-administration of 50 μM Dexamethasone with LPS): ~ 50%

Compound: O=C(O)Cc1ccccc1Nc1c(Cl)cccc1Cl [Diclofenac]
- Cmax [1]: 9.43 µM
- Cmax [2]: 10 µM
- IC50 [3, 12]: 294 µM
- IC50 [3, 11]: 29.7 µM

Compound: CC(=O)N1CCN(c2ccc(OCC3COC(Cn4ccnc4)(c4ccc(Cl)cc4Cl)O3)cc2)CC1 (stereo not shown) [Ketoconazole]
- downregulation of Cyp3a activity (Cyp3a): 60%

Compound: CN(Cc1cnc2nc(N)nc(N)c2n1)c1ccc(C(=O)N[C@@H](CCC(=O)O)C(=O)O)cc1 [Methotrexate]
- Cmax [2]: 43 µM
- reduction in cell viability after a single dosage [3]: only a slight reduction in cell viability
- MOS [3D in vitro IC50 / Human Cmax] 48 h [3]: 84’231
- MOS [3D in vitro IC50 / Human Cmax] 8 days [3]: 44.64
- IC50 [3, 11]: 207 µM
- hepatotoxicity class by IC50/Cmax (MOS) ([3]; mouse): assigned to the correct class

Compound: CCC1(c2ccccc2)C(=O)NC(=O)NC1=O [Phenobarbital]
- Cyp3a11 mRNA induction compared to the vehicle control (Cyp3a11 [6]; day 10 (treated day 7-10)): 6.2 fold
- Cyp3a11 mRNA induction compared to the vehicle control (Cyp3a11 [6]; day 17 (treated day 14-17)): 3.9 fold
- Cyp2b10 mRNA induction (Cyp2b10; day 10): 1.9 fold
- Cyp2b10 mRNA induction (Cyp2b10; day 17): 2.4 fold

Compound: CC(=O)[C@H]1[C@H](C#N)C[C@H]2[C@@H]3CC=C4C[C@@H](O)CC[C@]4(C)[C@H]3CC[C@@]21C [Pregnenolone 16α-carbonitrile]
- reduced expression of Cyp3a11 mRNA when administered together with LPS (Cyp3a11 [7]): 25%
- Cyp3a11 mRNA induction compared to the vehicle control (Cyp3a11 [6]; day 10 (treated day 7-10)): 20 fold
- Cyp3a11 mRNA induction compared to the vehicle control (Cyp3a11 [6]; day 17 (treated day 14-17)): 59 fold

Compound: CC(C)NCC(O)COc1cccc2ccccc12 (stereo not shown) [Propranolol]
- Cmax [1]: 0.2 µM

Compound: CN(C)[C@@H]1C(O)=C(C(N)=O)C(=O)[C@@]2(O)C(O)=C3C(=O)c4c(O)cccc4[C@@](C)(O)[C@H]3C[C@@H]12 [Tetracycline]
- Cmax [1]: 21 µM
- Cmax [2]: 11 µM
- IC50 [3, 12]: 436 µM
- IC50 [3, 11]: 39.7 µM

Compound: Cc1c(C)c2c(c(C)c1O)CCC(C)(COc1ccc(CC3SC(=O)NC3=O)cc1)O2 (stereo not shown) [Troglitazone]
- inhibition of BSEP expression ([4]; 1.25 μM): 10%
- inhibition of BSEP expression ([4]; 2.5 μM): 40%
- inhibition of BSEP expression ([4]; 10 μM): 89%
- cytotoxicity by LDH or ATP [5]: no cytotoxicity

Compound: O=c1cc(-c2ccccc2)oc2ccc3ccccc3c12 [β-naphthoflavone]
- Cyp1a1 mRNA induction (Cyp1a1; day 10): 90 fold
- Cyp1a1 mRNA induction (Cyp1a1; day 17): 103 fold
- Cyp1a2 mRNA induction (Cyp1a2; day 10): 157 fold
- Cyp1a2 mRNA induction (Cyp1a2; day 17): 59 fold

Compound: lipopolysaccharide [LPS]
- IL-6 release ([8]; coculture spheroids): 65 ± 11 pg/mL
- IL-6 release ([8]; monoculture spheroids): 2 pg/mL
- IL-6 mRNA expression increase (IL-6; LPS alone, 10 μg/ml, 48 h, coculture spheroids): 6 fold
- Cyp3a11 mRNA induction (Cyp3a11 [9]): did not lead to Cyp3a11 mRNA induction

Compound: transforming growth factor beta [TGFβ]
- Acta2 induction ([10]; higher concentration of TGFβ (first of two)): 4.7 fold
- Acta2 induction ([10]; higher concentration of TGFβ (second of two)): 8 fold
- Acta2 induction ([10]; low concentrations of TGFβ): 3.5 fold

Compound: tumor-necrosis factor alpha [TNFα]
- increase of mRNA expression of MHC-II (H2-Ab1) (H2-Ab1 (MHC-II)): 2.3 fold
